Series [1] has as its system PBC. As to conditions: PBC patients; cited from earlier work.
The subject of series [2] is STAM Model of Non-alcoholic Steatohepatitis. Put plainly: In vivo efficacy study in the STAM model of non-alcoholic steatohepatitis. Also on record: species or system C57BL/6 mice. The settings on record: for NAFLD Activity Score (NAS) compared with the STAM-Vehicle group: FIG. 1.1. An excerpt: Example: In Vivo Efficacy Study of cenicriviroc in combination with Compound A (“NVP-CH-4”) and Compound B (“NVP-CH-5”) in the STAM Model of Non-alcoholic Steatohepatitis (Treatment period: 6 to 9 wks or 9 to12 wks)
The study involves 14-day-pregnant C57BL/6 mice. NASH was established by a single subcutaneous injection of […] streptozotocin (Sigma, USA) after birth and feeding with a high fat diet (HFD, 57% kcal fat, CLEA Japan, Japan) ad libitum after 4 weeks of age (day 28±2). Randomization of NASH mice into six groups of 12 mice at 6 weeks of age (day 42±2) and six groups of 12 mice at 9 weeks of age (day 63±2), the day before the start of treatment, respectively. NASH animals were dosed from age 6-9 weeks (Study 1), or from age 9-12 weeks (Study 2) with either: vehicle, cenicriviroc, Compound A (“NVP-CH-4”), Compound B (“NVP-CH-5”), cenicriviroc+Compound A or cenicriviroc+Compound B. A non-disease vehicle-control group of 12 mice was included in both Study 1 and Study 2. These animals were fed with a normal diet (CE-2; CLEA Japan) ad libitum.
PK samples were collected and stored at −60° C. Animals were dosed according to the dosing schedule below. Each animal was sacrificed 5 hours after last morning dose on the last day of study treatment (the evening dose of cenicriviroc or vehicle […] that day due to sacrifice).
Dosing: • Cenicriviroc was prepared in 0.5% (w/v) methylcellulose with 1% Tween® 80 in sterile water for injection (USP). • Compound A and Compound B were prepared in 0.5% (w/v) methylcellulose (400 cPs) aqueous solution containing 0.5% (v/v) polysorbate 80, NF, in reverse osmosis water. • In general, cenicriviroc monotherapy was administered twice daily, 12 hours apart (AM and PM). For Compound A or Compound B monotherapy groups, drug was administered once daily in the morning with vehicle alone in the evening (12 hours after the morning dose).
End of Treatment Measurements: Mice were sacrificed at 9 weeks of age (study 1) or at 12 weeks of age (study 2).
The following biochemical assays were performed: Non-fasting blood glucose in whole blood by Life Check (Eidia, Japan); serum ALT by FUJI DRI-CHEM (Fujifilm, Japan); serum triglyceride; serum MCP-1, RANTES (CCLS) and MIP-1α/MIP-1 quantification by a commercial ELISA kit; liver triglyceride by Triglyceride E-test kit (Wako, Japan); liver hydroxyproline quantification by hydrolysis method; histological analyses for liver section; HE staining and estimation of NAFLD Activity score; Sirius-red staining and estimation of fibrosis area (with and without perivascular space subtracted); oil red staining and estimation of fat deposition area; F4/80 immunohistochemistry staining and estimation of inflammation area; alpha-SMA immunohistochemistry staining and estimation of α-SMA positive area Gene expression assays using total RNA from the liver.
Statistical tests were performed using one-way ANOVA followed by Dunnett's test and the Mann-Whitney test, as appropriate, for the multiple group comparisons. P values <0.05 are considered statistically significant.

The subject of series [3] is NASH in adults with liver fibrosis. The settings on record: cited from earlier work.
Series [4] has as its system nonalcoholic steatohepatitis patients. As to conditions: cited from earlier work.
[5] abbreviates: Study 1, treatment week 6-9, CVC 50 mg/kg AM and PM, Compound A 0.1 mg/kg, Compound B 10 mg/kg.
Setting [6] is: Study 2, treatment week 9-12, same doses.
[7] abbreviates: NASH adults with liver fibrosis, one year.

The values that follow come from patent US20210290610A1, “COMBINATION OF FXR AGONISTS” (priority 2016, published 2021).

Consider `C[C@H](CCC(=O)O)[C@H]1CC[C@H]2[C@@H]3[C@@H](O)C[C@@H]4C[C@H](O)CC[C@]4(C)[C@H]3CC[C@]12C` [UDCA, Ursodeoxycholic acid], for which the “population that does not respond” value in series [1] is reported as 30-40%.
For the compound `Cn1nc(C(=O)N(Cc2ccccc2)Cc2ccc(C(=O)O)cc2)c2c1-c1cc(Cl)ccc1OC2` [Compound B, 4-((N-benzyl-8-chloro-1-methyl-1,4-dihydrochromeno[4,3-c]pyrazole-3 carboxamido)methyl)benzoic acid], the “NAFLD Activity Score (NAS) compared with the STAM-Vehicle group” value in series [2] (setting [5]) and in series [2] (setting [6]) was “significant reductions in NAS” in each case. Besides, the “inflammatory cell infiltration score compared with the STAM-Vehicle group” value in series [2] (Study 1, week 6-9, FIG. 1.2) is reported as “significant reductions in the inflammatory cell infiltration score”.
`CCCCOCCOc1ccc(-c2ccc3c(c2)/C=C(/C(=O)Nc2ccc([S@@+]([O-])Cc4cncn4CCC)cc2)CCCN3CC(C)C)cc1` [CVC, (S,E)-8-(4-(2-butoxyethoxy)phenyI)-1-(2-methylpropyl)-N-(4-(((1-propyl-1H-imidazol-5-yl)methyl)sulfinyl)phenyl)-1,2,3,4-tetrahydrobenzo[b]azocine-5-carboxamide]: in series [3] (setting [7]), the fibrosis result is recorded as “reduction of fibrosis” and the “improvement of NAS” value is on record as “no significant impact”. The adverse effects result in series [3] (patients) is reported as “can induce fatigue or diarrhea in a small part of the patients”. Moreover, in series [2] (setting [5]), the “NAFLD Activity Score (NAS) compared with the STAM-Vehicle group” value is reported as “significant reductions in NAS”.
For the compound `CC[C@H]1[C@@H](O)[C@@H]2[C@H](CC[C@]3(C)[C@@H]([C@H](C)CCC(=O)O)CC[C@@H]23)[C@@]2(C)CC[C@@H](O)C[C@@H]12` [obeticholic acid, Obeticholic acid], the “safety concerns of long term administration” value in series [4] is reported as “can be associated with pruritus, as well as with increased LDL cholesterol”.
On to `O=C(O)c1cc(F)c2nc(N3C4CCC3CC(OCc3c(-c5ccccc5OC(F)(F)F)noc3C3CC3)C4)sc2c1` (centres unmarked) [Compound A, 2-[3-({5-cyclopropyl-3-[2-(trifluoromethoxy)phenyl]-1,2-oxazol-4-yl}methoxy)-8-azabicyclo[3.2.1]octan-8-yl]-4-fluoro-1,3-benzothiazole-6-carboxylic acid], for which the “NAFLD Activity Score (NAS) compared with the STAM-Vehicle group” value in series [2] (setting [5]) and in series [2] (setting [6]) was “significant reductions in NAS” each time.
